Earlier results in US10751294B1, “Development of an optimized avanafil-loaded invasomal transdermal film” (King Abdulaziz University, priority 2019, dated 2020).
Where two headings read alike, the source gives them in different places.

Key:
[1] = not given; remark: listed apart in the source
[2] = not given; remark: listed apart in the source
[3] = in water, methanol, and ethanol at 25° C.

Row | Structure (SMILES) | drug permeation enhanced (fold) (from invasomes) | drug permeation enhanced (fold) (from transfersomes) | pKa (acidic) [1] | pKa (basic) [1] | log P [2] | solubility [3]
1 | O=C(O)CN(CC(=O)O)Cc1cc2c(cc1O)Oc1cc(O)c(CN(CC(=O)O)CC(=O)O)cc1C21OC(=O)c2ccccc21 [calcein] | 7.2 fold | 1.8 fold |  |  |  | 
2 | COc1ccc(CN=c2[nH]c(N3CCC[C@H]3CO)ncc2C(=O)NCc2ncccn2)cc1Cl [AVA, Avanafil] |  |  | 11.84 | 5.89 | 1.84 | < 1000 µg/mL
